In US11976058B2, “Aromatic derivatives, preparation methods, and medical uses thereof” (Bioardis LLC, priority 2019, dated 2024):
Where two headings read alike, the source gives them in different places.

Legend:
[1] = system: MAPK phosphorylation in Hep3B cells stimulated with FGF19; assay: FGFR4 pMAPK AlphaLISA SureFire Ultra assay; type: cell-based; conditions: serum-starved, compound 1 hour, FGF19 100 ng/ml for 4 hours, read-out: Potency (IC50), FGFR4 pMAPK AlphaLISA
From the text: (§1) Cell line: Hepatocellular carcinoma cell line Hep3B (ATCC, Cat #HB-8064).
In normal liver, circulating FGF19 drives liver cell proliferation and regulates bile acid production. However aberrant expression of FGF19 in the liver drives HCC tumorigenesis, upregulates MAPK phosphorylation in FGF19-amplified malignant liver cells. AlphaScreen SureFire technology allows the detection of phosphorylated proteins in cellular lysates in a highly sensitive, quantitative assay. In these assays, sandwich antibody complexes, which are only formed in the presence of analyte, are captured by AlphaScreen Donor and Acceptor beads, bringing them into close proximity. The excitation of the Donor bead provokes the release of singlet oxygen molecules that triggers a cascade of energy transfer in the Acceptor beads, resulting in the emission of light at 520-620 nm.
Hep3B cells were plated at a density of 1×10^4/ml cells in a 96-well plate (Corning #3599), with 100 uL per well of MEM Medium (Gibco Cat #11095-080) supplemented with 10% fetal bovine serum; 1% Penicillin-Streptomycin, and cultured overnight at 37° C., 5% CO2. Starve Hep3B cells in serum-free medium (SFM) supplemented with 0.2% BSA and incubate the cells again overnight at 37° C., 5% CO2. Various concentrations of the test compound (prepared in 2x SFM) were added to the wells of the cell plate and then incubated for 1 hour at 37° C., 5% CO2. 50 μL of FGF19 in SFM was added to each well of the cell plate with a final FGF19 concentration of 100 ng/ml, and cells treated with FGF19 were stimulated for 4 hours at 37° C., 5% CO2. 5 μL of freshly prepared Donor Mix and Acceptor Mix were sequentially added to the cell plate, each followed with 1 hour of incubation at 25° C., 5% CO2. Read the cell plate on an Alpha Technology-compatible plate reader at 570 nm AlphaScreen, using standard AlphaLISA settings. The percent (%) inhibition=((ZPE−Alpha-Signal)/(ZPE−HPE))*100% where the meanings of HPE and ZPE are as provided below.
HPE: Hundred Percent Effect, negative control well without FGF19 nor compound. Final concentration of DMSO is 0.1%.
ZPE: Zero Percent Effect, positive control well without compound. Final concentration of FGF19 is 100 ng/mL, DMSO is 0.1%.
The concentrations and percent inhibition values for a test compound were plotted and the concentration of the compound required to achieve 50% inhibition (IC50) was determined with a four-parameter logistic dose response equation. Dose-response curves were generated using Prism (GraphPad Software, La Jolla, CA, US) to calculate IC50 values for each compound tested.

[2] = biological target: T1, human FGFR4 (Homo sapiens, UniProt P22455); assay: FGFR4 enzymatic assay (HTRF KinEASE-TK); type: biochemical; conditions: wild-type human FGFR4 cytoplasmic domain (460-802), GST-tag; 60 min preincubation at 25° C.; ATP 200 μM; read-out: Potency (IC50), FGFR4 enzymatic assay
T1 construct: human FGFR4 cytoplasmic domain (460-802); GST (N); purchased Carna Biosciences 08-136
T1 sequence (P22455 460-802): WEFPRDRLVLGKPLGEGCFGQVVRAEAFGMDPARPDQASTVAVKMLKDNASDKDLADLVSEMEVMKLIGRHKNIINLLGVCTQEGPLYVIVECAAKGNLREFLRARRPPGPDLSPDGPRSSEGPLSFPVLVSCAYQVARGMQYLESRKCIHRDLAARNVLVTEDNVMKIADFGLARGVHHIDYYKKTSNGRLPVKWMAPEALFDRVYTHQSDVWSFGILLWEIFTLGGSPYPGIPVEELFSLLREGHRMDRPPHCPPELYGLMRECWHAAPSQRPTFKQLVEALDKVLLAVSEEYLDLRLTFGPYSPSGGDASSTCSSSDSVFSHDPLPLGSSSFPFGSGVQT
Description: The ability of compounds to inhibit human FGFR4 tyrosine kinase activities was determined using a commercially available HTRF® KinEASE™-TK kit (CISBIO, Cat #62TK0PEC) according to the manufacturer's protocol. Wild-type human FGFR4 cytoplasmic domain (460-802) with N-terminal GST-tag was purchased from Carna Biosciences (Carna, Cat #08-136) and used in the kinase enzymatic assay. This assay, run in a 384-well plate format, is a generic method for measuring tyrosine kinase activities using one substrate and a universal detection system. It involves two steps: (1) Enzymatic step: the biotin labeled TK Substrate is incubated with the kinase and then ATP is added to start the enzymatic reaction; during this step, FGFR4 will phosphorylate the TK Substrate-biotin. (2) Detection step: The TK-Antibody labeled with Eu^3+-Cryptate can recognize the phosphorylated TK Substrate-biotin. When the streptavidin-XL665 conjugate binds the biotin, a FRET signal will be detected. Briefly, human FGFR4 (0.25 μg/ml) in the enzymatic buffer solutions (250 mM HEPES, pH7.0, 0.1% NaN3, 0.05% BSA, 0.5 mM Orthovanadate) were mixed with various concentrations of the test compound (dissolved in 100% DMSO). These solutions were incubated for 60 min at 25° C., and subsequently a mixture of substrate peptide and ATP was added with the final peptide and ATP concentrations at 0.3 μM and 200 μM respectively. The final reaction mixture of enzyme-substrate-ATP-compound was incubated for 40 min at 37° C. Meanwhile the detection mixture containing the TK-antibody and Streptavidin-XL665 diluted in the detection buffer (50 mM HEPES, pH7.0, with additives) was prepared, and added to the reaction mixture at final concentrations of 25 nM and 18.5 nM respectively. After incubation for 60 min at 25° C., the FRET signal of the final solution was measured at 665 nm and 612 nm emissions on a TECAN Spark 10M instrument (TECAN). The percent (%) inhibition at each concentration of a compound was calculated relative to the FRET signal in the Max and Min control wells contained within each assay plate. The Max control wells contained enzyme and substrate as 0% inhibition, and the Min control wells only contained substrate without enzyme as 100% inhibition. The concentrations and percent inhibition values for a test compound are plotted and the concentration of the compound required to achieve 50% inhibition (IC50) was determined with a four-parameter logistic dose response equation. Dose-response curves were generated using Prism (GraphPad Software, La Jolla, CA, US) to calculate IC50 values for each compound tested.

[3] = system: Hep3B cells; assay: Cell-based FGFR4 proliferation assay (CellTiter-Glo); conditions: incubated with test compound for 3 days, CellTiter-Glo luminescence, read-out: Potency (IC50), Hep3B cell proliferation
Description: Hepatocellular carcinoma cell line Hep3B (ATCC, Cat #HB-8064) were cultured at 37° C., 5% CO2 in ATCC-formulated Eagle's Minimum Essential Medium supplemented with 10% fetal bovine serum; 1% Penicillin-Streptomycin.
as §1
In this assay, Hep3B cells are seeded in 384-well microplates, and after exposure to experimental compounds for […], CellTiter-Glo® Luminescent Cell Viability Assay kit (Promega, Cat #G7572) are used to determine the number of viable cells in the culture based on quantitation of the ATP present, which signals the presence of metabolically active cells. Luminescent signal is proportional to the amount of ATP present. The amount of ATP is directly proportional to the number of cells present in the culture, allowing drug-induced effects on cell proliferation to be measured.
Hep3B cells were plated at a density of 4×10^4/ml cells in a 384-well black/clear microplate with 20 μL per well of MEM Medium (Gibco Cat. #11095-080) supplemented with 10% fetal bovine serum; 1% Penicillin-Streptomycin, and cultured overnight at 37° C., 5% CO2. Various concentrations of the test compound (dissolved in 100% DMSO) were added to the wells of the cell plate. The cells were incubated with the test compound for 3 days at 37° C., 5% CO2. 5 μL of CellTiter-Glo® Reagent was added to each well of the cell plate. The cell plate was incubated for 5 min at 25° C. on a plate shaker (IKA MTS 2/4) at 300 rpm. Luminescence signals were read on a TECAN Spark 10M instrument (TECAN). […] The concentrations and percent inhibition values for a test compound were plotted and the concentration of the compound required to achieve 50% inhibition (IC50) is determined with a four-parameter logistic dose response equation. Dose-response curves were generated using Prism (GraphPad Software, La Jolla, CA, US) to calculate IC50 values for each compound tested.

SMILES | IC50 [1] [nM] | IC50 [2] [nM] | IC50 [3] [nM] | IC50 ([1]; Homo sapiens, Hep3B) [nM] | IC50 ([3]; Homo sapiens, Hep3B, 72 h) [nM]
[2H]C([2H])([2H])Oc1cc(OC([2H])([2H])[2H])c(F)c(C2CCc3c(-c4c(NC(=O)C=C)cnn4C)n[nH]c3C2)c1F (single isomer, unassigned) [Compound S8-P2, N-(5-(6-(2,6-difluoro-3,5-bis(methoxy-d3)phenyl)-4,5,6,7-tetrahydro-1H-indazol-3-yl)-1-methyl-1H-pyrazol-4-yl) acrylamide] | < 10 | < 10 | 10 to 100 |  | 
[2H]C([2H])([2H])Oc1cc(OC([2H])([2H])[2H])c(F)c(C2CCc3c(-c4c(NC(=O)C=C)cnn4C)n[nH]c3C2)c1 (single isomer, unassigned) [Compound S8-P3, N-(5-(6-(2-fluoro-3,5-bis(methoxy-d3)phenyl)-4,5,6,7-tetrahydro-1H-indazol-3-yl)-1-methyl-1H-pyrazol-4-yl) acrylamide] |  | 10 to 100 |  | 10 to 100 | > 100
[2H]C([2H])([2H])Oc1cc(OC([2H])([2H])[2H])c(F)c(C2CCc3c(-c4c(NC(=O)C=C)cnn4C)n[nH]c3C2)c1 (single isomer, unassigned) [Compound S8-P4, N-(5-(6-(2-fluoro-3,5-bis(methoxy-d3)phenyl)-4,5,6,7-tetrahydro-1H-indazol-3-yl)-1-methyl-1H-pyrazol-4-yl) acrylamide] | 10 to 100 | 10 to 100 | > 100 |  | 
C=CC(=O)Nc1cn[nH]c1-c1n[nH]c2c1CCCC(c1cc(OC)cc(OC)c1F)C2 (single isomer, unassigned) [Compound S11-P3, N-(5-(7-(2-fluoro-3,5-dimethoxyphenyl)-1,4,5,6,7,8-hexahydrocyclohepta[c]pyrazol-3-yl)-1H-pyrazol-4-yl)acrylamide] |  | < 10 |  | < 10 | 10 to 100
C=CC(=O)Nc1cn[nH]c1-c1n[nH]c2c1CCCC(c1cc(OC)cc(OC)c1F)C2 (single isomer, unassigned) [Compound S11-P4, N-(5-(7-(2-fluoro-3,5-dimethoxyphenyl)-1,4,5,6,7,8-hexahydrocyclohepta[c]pyrazol-3-yl)-1H-pyrazol-4-yl)acrylamide] | < 10 | < 10 | < 10 |  | 
C=CC(=O)Nc1cn(C)nc1-c1n[nH]c2c1CCC[C@H](c1c(F)c(OC)cc(OC)c1F)C2 (single isomer, unassigned) [Compound S12-P1] |  | < 10 |  | < 10 | 10 to 100
C=CC(=O)Nc1cn(C)nc1-c1n[nH]c2c1CCCC(c1cc(OC)cc(OC)c1F)C2 (single isomer, unassigned) [Compound S12-P3, N-(3-(7-(2-fluoro-3,5-dimethoxyphenyl)-1,4,5,6,7,8-hexahydrocyclohepta[c]pyrazol-3-yl)-1-methyl-1H-pyrazol-4-yl) acrylamide] |  | 10 to 100 |  | < 10 | 10 to 100
C=CC(=O)Nc1cn(C)nc1-c1n[nH]c2c1CCCC(c1cc(OC)cc(OC)c1F)C2 (single isomer, unassigned) [Compound S12-P4, N-(3-(7-(2-fluoro-3,5-dimethoxyphenyl)-1,4,5,6,7,8-hexahydrocyclohepta[c]pyrazol-3-yl)-1-methyl-1H-pyrazol-4-yl) acrylamide] | < 10 | < 10 | < 10 |  | 
C=CC(=O)Nc1c[nH]nc1-c1n[nH]c2c1CCC(c1c(F)c(OC)cc(OC)c1F)C2 (single isomer, unassigned) [Compound S15-P1, N-(3-(6-(2,6-difluoro-3,5-dimethoxyphenyl)-4,5,6,7-tetrahydro-1H-indazol-3-yl)-1H-pyrazol-4-yl)acrylamide] |  | < 10 |  | < 10 | < 10
C=CC(=O)Nc1c[nH]nc1-c1n[nH]c2c1CCC(c1cc(OC)cc(OC)c1F)C2 (single isomer, unassigned) [Compound S15-P3, N-(3-(6-(2-fluoro-3,5-dimethoxyphenyl)-4,5,6,7-tetrahydro-1H-indazol-3-yl)-1H-pyrazol-4-yl)acrylamide] |  | 10 to 100 |  | < 10 | 10 to 100
C=CC(=O)Nc1c[nH]nc1-c1n[nH]c2c1CCC(c1cc(OC)cc(OC)c1F)C2 (single isomer, unassigned) [Compound S15-P4, N-(3-(6-(2-fluoro-3,5-dimethoxyphenyl)-4,5,6,7-tetrahydro-1H-indazol-3-yl)-1H-pyrazol-4-yl)acrylamide] | < 10 | 10 to 100 | 10 to 100 |  | 
[2H]C([2H])([2H])n1ncc(NC(=O)C=C)c1-c1n[nH]c2c1CCC(c1c(F)c(OC)cc(OC)c1F)C2 (single isomer, unassigned) [Compound S16-P1, N-(5-(6-(2,6-difluoro-3,5-dimethoxyphenyl)-4,5,6,7-tetrahydro-1H-indazol-3-yl)-1-(methyl-d3)-1H-pyrazol-4-yl)acrylamide] |  | < 10 |  | < 10 | 10 to 100
